Test results as given in publication PMC2992884 (Cell metabolism, 2010).

Target: T1, ACS-3 (Caenorhabditis elegans, UniProt O44560)
T1 sequence (O44560 1-653): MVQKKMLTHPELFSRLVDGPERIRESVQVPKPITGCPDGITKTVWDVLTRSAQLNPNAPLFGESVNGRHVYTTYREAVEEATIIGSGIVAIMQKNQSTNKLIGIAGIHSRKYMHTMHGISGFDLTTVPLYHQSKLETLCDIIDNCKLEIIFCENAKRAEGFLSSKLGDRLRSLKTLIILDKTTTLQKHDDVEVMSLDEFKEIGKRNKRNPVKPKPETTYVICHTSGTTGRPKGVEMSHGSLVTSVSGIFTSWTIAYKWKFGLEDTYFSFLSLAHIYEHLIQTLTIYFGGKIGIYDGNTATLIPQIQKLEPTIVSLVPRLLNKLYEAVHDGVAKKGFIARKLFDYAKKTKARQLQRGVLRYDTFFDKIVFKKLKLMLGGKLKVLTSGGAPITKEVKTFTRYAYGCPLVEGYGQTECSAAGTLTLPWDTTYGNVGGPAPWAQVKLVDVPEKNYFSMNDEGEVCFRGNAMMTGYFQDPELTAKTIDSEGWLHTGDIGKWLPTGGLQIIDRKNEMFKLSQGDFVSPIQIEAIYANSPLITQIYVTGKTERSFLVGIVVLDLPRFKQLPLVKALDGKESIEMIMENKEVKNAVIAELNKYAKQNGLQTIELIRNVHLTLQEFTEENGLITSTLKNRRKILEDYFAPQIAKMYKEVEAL
Experiment: acyl-CoA oxidase/catalase coupled colorimetric assay, […] nm
Type: biochemical
Conditions: with free long-chain fatty acid (18-carbon preferred)

## CC(C)(COP(=O)(O)OP(=O)(O)OC[C@H]1O[C@@H](n2cnc3c(N)ncnc32)[C@H](O)[C@@H]1OP(=O)(O)O)[C@@H](O)C(=O)NCCC(=O)NCCS [CoA]
  acyl-CoA oxidase/catalase coupled colorimetric assay, 550 nm: ACS activity generates acyl-CoA species from free fatty acid and CoA
